Data published in patent US20250351832A1, “PHYTOCHEMICALS AS BIOPESTICIDES AND BIOSTIMULANTS” (KAY BEE BIO ORGANICS PVT. LTD., priority 2024, published 2025).
Entries after “also recorded” stand apart in the source; their conditions may differ. Like-named read-outs stand apart in the source and are kept apart here.

Assays:
Alternaria alternata [1] = assay: In vitro poisoned food technique against fungus (Ex. 20); type: cell-based; conditions: poisoned food technique, PDA medium, dose 1 ml/gm/lit., after seven days; for inhibition of growth at 1 mL or g/L: vs untreated control, read-out: % Inhibition of growth
Alternaria alternata [2] = assay: Alternaria leaf spot/blight on inoculated tomato plants (Ex. 28); type: in vivo; conditions: tomato plants, Alternaria alternata; after 7 days; dose 1 ml/gm/lit
tomato seedlings = assay: Response of tomato plants, greenhouse growth (Ex. 30); type: in vivo; conditions: tomato seedlings, dose 1 ml/gm/lit; for Plant Height 5th Day / Stem Girth 5th Day / CCI 5th Day: 5th day after application; for Plant Height 10th Day / Stem Girth 10th Day / CCI 10th Day: 10th day after application; for Plant Height % Increase over pre on 10th Day / Stem Girth % Increase over pre on 10th Day / CCI % Increase over pre on 10th Day / Root Length (cm) 10th Day / Root Length % Increase over control: 10th day; for Root Length % Increase over control: vs water control
chili seedlings = assay: Response of chili plants, greenhouse growth (Ex. 31); type: in vivo; conditions: chili seedlings, dose 1 ml/gm/lit; for CCI 5th Day / Plant Height (cm) 5th Day: 5th day after application; for CCI 10th Day / Plant Height (cm) 10th Day: 10th day after application; for CCI % Increase over pre on 10th Day / Plant Height % Increase over pre on 10th Day / Root Lenght (cm) 10th Day / Stem Girth % Increase over pre on 10th Day / Root Lenght % Increase over control: 10th day; for Root Lenght % Increase over control: vs water control
Aphid [3] = conditions: Dose 1 ml/gm/lit.; for Total No. of dead insect at 48 Hrs.: 10 insects/treatment, 4 replications, cotton leaves
Mite [4] = conditions: Dose 1 ml/gm/lit.; for Total No. of dead insect at 48 Hrs.: 10 insects/treatment, 4 replications, okra leaves
Mealy Bug [5] = conditions: Mealy Bug on cotton leaves, dose 1 ml/gm/lit., 48 Hrs.; for Total No. of dead insect at 48 Hrs.: 10 insects/treatment, 4 replications; for % Corrected Mortality at 48 Hrs.: corrected for water control
Helicoverpa armigera [6] = conditions: Helicoverpa armigera on okra fruits, dose 1 ml/gm/lit., 72 Hrs.; for Total No. of dead insect at 72 Hrs.: 10 insects/treatment, 4 replications; for % Corrected Mortality at 72 Hrs.: corrected for water control
Spodoptera litura [7] = conditions: Spodoptera litura on castor leaves; dose 1 ml/gm/lit.; 10 insects/treatment; 72 hrs after application
Thrips [8] = conditions: Thrips on cotton leaves; dose 1 ml/gm/lit.; 10 insects/treatment; 48 hrs after application
Aphid [9] = conditions: Aphids on cotton plants, green house; dose 1 ml/gm/lit.; 10 insects/plant, 10 plants/treatment; 48 hrs
Mite [10] = conditions: mite on okra plants, green house, dose 1 ml/gm/lit. spray; for % Mortality at 48 Hrs. / Total No. of dead insect at 48 Hrs.: 48 hrs after application; for % Corrected Mortality at 48 Hrs.: corrected for water control
Mealy Bug [11] = conditions: mealy bug on cotton plants, green house, dose 1 ml/gm/lit. spray; for % Mortality at 48 Hrs. / Total No. of dead insect at 48 Hrs.: 48 hrs after application; for % Corrected Mortality at 48 Hrs.: corrected for water control
Helicoverpa armigera [12] = conditions: Helicoverpa armigera 3rd instar on chickpea plants, dose 1 ml/gm/lit. spray; for % Mortality at 72 Hrs.: 72 hrs after application; for % Corrected Mortality at 72 Hrs.: corrected for water control
Spodoptera litura [13] = conditions: Spodoptera litura 3rd instar on cabbage plants, dose 1 ml/gm/lit. spray; for % Mortality at 72 Hrs.: 72 hrs after application; for % Corrected Mortality at 72 Hrs.: corrected for water control
Thrips [14] = conditions: thrips on cotton plants, greenhouse, dose 1 ml/gm/lit. spray; for % Corrected Mortality at 48 Hrs.: corrected for water control
[15] = cited from earlier work; for Phytotonic Effect: Table 13, effect on plants, descriptive
Spodoptera litura [16] = assay: whole plant or invertebrate; conditions: 72 h
Thrips [17] = assay: whole plant or invertebrate; conditions: in Gossypium hirsutum, 48 h
Aphid [18] = assay: whole plant or invertebrate; conditions: 48 h
[19] = read-out: % Corrected Mortality at 72 Hrs.
[20] = read-out: % Mortality at 72 Hrs.
[21] = read-out: % Corrected Mortality at 48 Hrs.
[22] = read-out: % Mortality at 48 Hrs.
[23] = Table 13, descriptive, no test described

CC1=CCC2CC1C2(C)C (stereo not drawn) [Alpha-pinene]
Mean colony Diameter (mm) (Alternaria alternata [1]): 71.50 mm | inhibition of growth at 1 mL or g/L (Alternaria alternata [1]): 18.8% | % Disease reduction over Control (Alternaria alternata [2]): 42.15% | Plant Height 5th Day (tomato seedlings): 7.24 cm | Stem Girth 5th Day (tomato seedlings): 2.01 mm | Plant Height 10th Day (tomato seedlings): 7.74 cm | Stem Girth 10th Day (tomato seedlings): 2.22 mm | Plant Height % Increase over pre on 10th Day (tomato seedlings): 26.47% | Stem Girth % Increase over pre on 10th Day (tomato seedlings): 55.24% | CCI 5th Day (tomato seedlings): 13.65 | CCI % Increase over pre on 10th Day (tomato seedlings): 25.17% | Root Length (cm) 10th Day (tomato seedlings): 4.30 cm | CCI 10th Day (tomato seedlings): 14.32 | Root Length % Increase over control (tomato seedlings): 29.14% | CCI 5th Day (chili seedlings): 11.40 | Plant Height (cm) 5th Day (chili seedlings): 6.35 cm | CCI % Increase over pre on 10th Day (chili seedlings): 36.59% | Plant Height % Increase over pre on 10th Day (chili seedlings): 51.74% | Root Lenght (cm) 10th Day (chili seedlings): 3.23 cm | Stem Girth % Increase over pre on 10th Day (chili seedlings): 41.80% | CCI 10th Day (chili seedlings): 12.58 | Plant Height (cm) 10th Day (chili seedlings): 6.54 cm | Root Lenght % Increase over control (chili seedlings): 17.88% | Total No. of dead insect at 48 Hrs. (Aphid [3]): 5.75 | % Corrected Mortality at 48 Hrs. (Aphid [3]): 51.43% | % Mortality at 48 Hrs. (Aphid [3]): 57.50% | Total No. of dead insect at 48 Hrs. (Mite [4]): 4.00 | % Corrected Mortality at 48 Hrs. (Mite [4]; 48 hrs): 35.14% | % Mortality at 48 Hrs. (Mite [4]; 48 hrs): 40.00% | Total No. of dead insect at 48 Hrs. (Mealy Bug [5]): 5.25 | % Mortality at 48 Hrs. (Mealy Bug [5]): 52.50% | % Corrected Mortality at 48 Hrs. (Mealy Bug [5]): 50.00% | Total No. of dead insect at 72 Hrs. (Helicoverpa armigera [6]): 7.00 | % Mortality at 72 Hrs. (Helicoverpa armigera [6]): 70.00% | % Corrected Mortality at 72 Hrs. (Helicoverpa armigera [6]): 70.00% | Total No. of dead insect at 72 Hrs. (Spodoptera litura [7]): 5.00 | Total No. of dead insect at 48 Hrs. (Thrips [8]): 4.25 | Total No. of dead insect at 48 Hrs. (Aphid [9]): 60.00 | % Mortality at 48 Hrs. (Mite [10]): 32.50% | Total No. of dead insect at 48 Hrs. (Mite [10]): 32.50 | % Corrected Mortality at 48 Hrs. (Mite [10]): 28.95% | % Mortality at 48 Hrs. (Mealy Bug [11]): 60.00% | Total No. of dead insect at 48 Hrs. (Mealy Bug [11]): 60.00 | % Corrected Mortality at 48 Hrs. (Mealy Bug [11]): 55.56% | % Mortality at 72 Hrs. (Helicoverpa armigera [12]): 67.50% | % Corrected Mortality at 72 Hrs. (Helicoverpa armigera [12]): 67.50% | % Mortality at 72 Hrs. (Spodoptera litura [13]): 55.00% | % Corrected Mortality at 72 Hrs. (Spodoptera litura [13]): 52.63% | Total No. of dead insect at 48 Hrs. (Thrips [14]; 48 hrs after application): 42.50 | % Corrected Mortality at 48 Hrs. (Thrips [14]): 36.11% | Phytotonic Effect [15]: Trigger plant; also recorded: Boost chlorophyll | mortality at 1 mL or g/L (Spodoptera litura [16]; [19]): 47.4% | mortality at 1 mL or g/L (Spodoptera litura [16]; [20]): 50% | mortality at 1 mL or g/L (Thrips [17]; [21]): 34.3% | mortality at 1 mL or g/L (Thrips [17]; [22]): 42.5% | mortality at 1 mL or g/L (Aphid [18]; [21]): 52.9% | mortality at 1 mL or g/L (Aphid [18]; [22]): 60%

CC12CCC(CC1=O)C2(C)C (stereo not shown) [Camphor]
Mean colony Diameter (mm) (Alternaria alternata [1]): 60.00 mm | inhibition of growth at 1 mL or g/L (Alternaria alternata [1]): 31.8% | % Disease reduction over Control (Alternaria alternata [2]): 46.28% | Plant Height 5th Day (tomato seedlings): 6.34 cm | Stem Girth 5th Day (tomato seedlings): 1.90 mm | Plant Height 10th Day (tomato seedlings): 6.96 cm | Stem Girth 10th Day (tomato seedlings): 2.06 mm | Plant Height % Increase over pre on 10th Day (tomato seedlings): 27.94% | Stem Girth % Increase over pre on 10th Day (tomato seedlings): 53.50% | CCI 5th Day (tomato seedlings): 13.64 | CCI % Increase over pre on 10th Day (tomato seedlings): 26.67% | Root Length (cm) 10th Day (tomato seedlings): 3.58 cm | CCI 10th Day (tomato seedlings): 14.82 | Root Length % Increase over control (tomato seedlings): 7.76% | CCI 5th Day (chili seedlings): 11.80 | Plant Height (cm) 5th Day (chili seedlings): 5.70 cm | CCI % Increase over pre on 10th Day (chili seedlings): 25.81% | Plant Height % Increase over pre on 10th Day (chili seedlings): 56.20% | Root Lenght (cm) 10th Day (chili seedlings): 3.47 cm | Stem Girth % Increase over pre on 10th Day (chili seedlings): 44.32% | CCI 10th Day (chili seedlings): 13.21 | Plant Height (cm) 10th Day (chili seedlings): 6.30 cm | Root Lenght % Increase over control (chili seedlings): 26.68% | Total No. of dead insect at 48 Hrs. (Aphid [3]): 5.75 | % Corrected Mortality at 48 Hrs. (Aphid [3]): 51.43% | % Mortality at 48 Hrs. (Aphid [3]): 57.50% | Total No. of dead insect at 48 Hrs. (Mite [4]): 6.75 | % Corrected Mortality at 48 Hrs. (Mite [4]; 48 hrs): 64.86% | Total No. of dead insect at 48 Hrs. (Mealy Bug [5]): 5.25 | % Mortality at 48 Hrs. (Mealy Bug [5]): 52.50% | % Corrected Mortality at 48 Hrs. (Mealy Bug [5]): 50.00% | Total No. of dead insect at 72 Hrs. (Helicoverpa armigera [6]): 6.00 | % Mortality at 72 Hrs. (Helicoverpa armigera [6]): 60.00% | % Corrected Mortality at 72 Hrs. (Helicoverpa armigera [6]): 60.00% | Total No. of dead insect at 72 Hrs. (Spodoptera litura [7]): 4.25 | Total No. of dead insect at 48 Hrs. (Thrips [8]): 4.50 | Total No. of dead insect at 48 Hrs. (Aphid [9]): 60.00 | % Mortality at 48 Hrs. (Mite [10]): 65.00% | Total No. of dead insect at 48 Hrs. (Mite [10]): 65.00 | % Corrected Mortality at 48 Hrs. (Mite [10]): 63.16% | % Mortality at 48 Hrs. (Mealy Bug [11]): 67.50% | Total No. of dead insect at 48 Hrs. (Mealy Bug [11]): 67.50 | % Corrected Mortality at 48 Hrs. (Mealy Bug [11]): 63.89% | % Mortality at 72 Hrs. (Helicoverpa armigera [12]): 55.00% | % Corrected Mortality at 72 Hrs. (Helicoverpa armigera [12]): 55.00% | % Mortality at 72 Hrs. (Spodoptera litura [13]): 45.00% | % Corrected Mortality at 72 Hrs. (Spodoptera litura [13]): 42.11% | % Mortality at 48 Hrs. (Thrips [14]; 48 hrs after application): 42.50% | Total No. of dead insect at 48 Hrs. (Thrips [14]; 48 hrs after application): 42.50 | % Corrected Mortality at 48 Hrs. (Thrips [14]): 36.11% | Acaricidal Activity - Mode of action [15, 23]: Deteriorating respiratory | Antifungal Activity - Mode of action [15, 23]: Repel fungal infections | Antioxidant Activity - Mode of action [15, 23]: Free radical scavenging | Bactericidal Activity - Mode of action [15, 23]: Inhibit microbial growth, | Insecticidal Activities - Mode of action [15, 23]: Strong contact toxicity | Nematicidal Activity - Mode of action [15, 23]: Strong activity against | Virucidal Activity - Mode of action [15, 23]: Control the spread of viral | Phytotonic Effect [15]: Strong | mortality at 1 mL or g/L (Spodoptera litura [16]; [19]): 39.5% | mortality at 1 mL or g/L (Spodoptera litura [16]; [20]): 42.5% | mortality at 1 mL or g/L (Thrips [17]; [21]): 37.1% | mortality at 1 mL or g/L (Thrips [17]; [22]): 45% | mortality at 1 mL or g/L (Aphid [18]; [21]): 52.9% | mortality at 1 mL or g/L (Aphid [18]; [22]): 60%
